Literature values, collected in patent US6743448B2 (priority 2000, dated 2004).

What was measured:
IGF-I mRNA = settings: relative to hypophysectomized control animals
[1] = tested on: formation of DHT and androstenedione; settings: 14C-testosterone as substrate, effective inhibitory concentrations, n 4, p<0.001
prostatic cells = settings: 1 nM for 2-7 days

C[C@]12CCC(=O)C[C@@H]1CC[C@@H]1[C@@H]2CC[C@]2(C)[C@@H](O)CC[C@@H]12 [DHT, dihydrotestosterone]
Increase of the IGF-I mRNA level (IGF-I mRNA): 40 times

C[C@]12CC[C@H]3[C@@H](CCC4=CC(=O)CC[C@@]43C)[C@@H]1CC[C@@H]2O [Testosterone, (17)-17-Hydroxyandrost-4-en-3-one]
Increase of the IGF-I mRNA level (IGF-I mRNA): 30 times

CC(=O)[C@H]1CC[C@H]2[C@@H]3CCC4=CC(=O)CC[C@]4(C)[C@H]3CC[C@]12C [Progesterone, progesterone]
Inhibition of the formation of DHT [1]: 10 fold | Inhibition of the formation of androstenedione [1]: 3-5 fold

COc1ccc2[nH]cc(CCNC(C)=O)c2c1 [Melatonin, melatonin]
Effect on cell growth (prostatic cells): inhibit cell growth
